Assay results taken from patent publication US6737383B1, “Herbicidal oxadiazolidines” (priority 1999, dated 2004).

Columns and labels:
crabgrass = experiment: Test B pre/postemergence crabgrass; type: in vivo, Digitaria sanguinalis
In short: (§1)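 Herbicidal effect was estimated by eye on a ten-point control scale after plants spent twelve to sixteen days in a greenhouse following soil or foliar treatment. Foliar sprays targeted plants at one to four leaves; all doses were formulated in a non-phytotoxic solvent with surfactant.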

velvetleaf = experiment: Test B pre/postemergence velvetleaf; type: in vivo, Abutilon theophrasti
In short: as §1

cocklebur = experiment: Test B pre/postemergence cocklebur; type: in vivo, Xanthium strumarium
In short: as §1

soybean = experiment: Test B pre/postemergence soybean; type: in vivo, Glycine max
In short: as §1

wild oat = experiment: Test B pre/postemergence wild oat; type: in vivo, Avena fatua
In short: as §1

giant foxtail = experiment: Test B pre/postemergence giant foxtail; type: in vivo, Setaria faberii
In short: as §1

wheat = experiment: Test B pre/postemergence wheat; type: in vivo, Triticum aestivum
In short: as §1

purple nutsedge = experiment: Test B pre/postemergence purple nutsedge; type: in vivo, Cyperus rotundus
In short: as §1

corn = experiment: Test B pre/postemergence corn; type: in vivo, Zea mays
In short: as §1

pigweed = experiment: Test B pre/postemergence pigweed; type: in vivo, Amaranthus retroflexus
In short: as §1

morningglory = experiment: Test B pre/postemergence morningglory; type: in vivo, Ipomoea hederacea
In short: as §1

rape = experiment: Test B pre/postemergence rape; type: in vivo, Brassica napus
In short: as §1

sugar beet = experiment: Test B pre/postemergence sugar beet; type: in vivo, Beta vulgaris
In short: as §1

[1] = Postemergence, Rate 125 g/ha, scale of 0 to 10 where 0 is no effect and 10 is complete control
[2] = Preemergence, Rate 62 g/ha, scale of 0 to 10 where 0 is no effect and 10 is complete control
[3] = Preemergence, Rate 125 g/ha, 0 is no effect, 10 is complete control
[4] = Preemergence, Rate 250 g/ha, scale 0 to 10, 0 is no effect, 10 is complete control
[5] = Preemergence, Rate 500 g/ha, scale 0 to 10 (0 no effect, 10 complete control)
[6] = Rate 62 g/ha, Postemergence, scale of 0 to 10 where 0 is no effect and 10 is complete control
[7] = Rate 250 g/ha, Postemergence, scale 0 to 10, 0 is no effect, 10 is complete control
[8] = Rate 500 g/ha, Postemergence, scale 0 to 10

CC1CCCCC1n1c(=O)on(C(=O)N(c2ccc(F)cc2)C(C)C)c1=O (centres unmarked) [Compound 161]
8: Crabgrass plant response rating (0 to 10 scale) (crabgrass; [3])
10: Giant foxtail plant response rating (giant foxtail; [5]) | Redroot pigweed plant response rating (pigweed; [5]) | Morningglory plant response rating (morningglory; [8])
6: Velvetleaf plant response rating (velvetleaf; [8]) | Wild oats plant response rating (wild oat; [5])
3: Cocklebur plant response rating (cocklebur; [8]) | Wild oats plant response rating (wild oat; [4]) | Plant response rating, Giant foxtail (giant foxtail; [7]) | Rape plant response rating (rape; [5])
0: Crabgrass plant response rating (crabgrass; [6]) | Velvetleaf plant response rating (velvetleaf; [2]) | Velvetleaf plant response rating (0 to 10 scale) (velvetleaf; [3]) | Velvetleaf plant response rating (velvetleaf; [4]) | Velvetleaf plant response rating (velvetleaf; [5]) | Cocklebur plant response rating (cocklebur; [1]) | Cocklebur plant response rating (cocklebur; [2]) | Cocklebur plant response rating (0 to 10 scale) (cocklebur; [3]) | Cocklebur plant response rating (cocklebur; [4]) | Cocklebur plant response rating (cocklebur; [5]) | Cocklebur plant response rating (cocklebur; [6]) | Plant response rating, Cocklebur (cocklebur; [7]) | Soybean plant response rating (soybean; [2]) | Soybean plant response rating (0 to 10 scale) (soybean; [3]) | Soybean plant response rating (soybean; [4]) | Soybean plant response rating (soybean; [5]) | Wild oats plant response rating (wild oat; [2]) | Wild oats plant response rating (0 to 10 scale) (wild oat; [3]) | Plant response rating, Wild oats (wild oat; [7]) | Wild oats plant response rating (wild oat; [8]) | Giant foxtail plant response rating (giant foxtail; [1]) | Giant foxtail plant response rating (giant foxtail; [6]) | Wheat plant response rating (wheat; [2]) | Wheat plant response rating (0 to 10 scale) (wheat; [3]) | Wheat plant response rating (wheat; [4]) | Plant response rating, Wheat (wheat; [7]) | Wheat plant response rating (wheat; [8]) | Nutsedge plant response rating (purple nutsedge; [1]) | Nutsedge plant response rating (purple nutsedge; [2]) | Nutsedge plant response rating (0 to 10 scale) (purple nutsedge; [3]) | Nutsedge plant response rating (purple nutsedge; [4]) | Nutsedge plant response rating (purple nutsedge; [5]) | Nutsedge plant response rating (purple nutsedge; [6]) | Plant response rating, Nutsedge (purple nutsedge; [7]) | Nutsedge plant response rating (purple nutsedge; [8]) | Corn plant response rating (corn; [1]) | Corn plant response rating (corn; [2]) | Corn plant response rating (0 to 10 scale) (corn; [3]) | Corn plant response rating (corn; [4]) | Corn plant response rating (corn; [5]) | Corn plant response rating (corn; [6]) | Plant response rating, Corn (corn; [7]) | Corn plant response rating (corn; [8]) | Redroot pigweed plant response rating (pigweed; [1]) | Redroot pigweed plant response rating (pigweed; [2]) | Redroot pigweed plant response rating (0 to 10 scale) (pigweed; [3]) | Redroot pigweed plant response rating (pigweed; [6]) | Morningglory plant response rating (morningglory; [2]) | Morningglory plant response rating (0 to 10 scale) (morningglory; [3]) | Morningglory plant response rating (morningglory; [4]) | Morningglory plant response rating (morningglory; [5]) | Rape plant response rating (rape; [1]) | Rape plant response rating (rape; [2]) | Rape plant response rating (0 to 10 scale) (rape; [3]) | Rape plant response rating (rape; [4]) | Rape plant response rating (rape; [6]) | Plant response rating, Rape (rape; [7]) | Sugarbeets plant response rating (sugar beet; [2]) | Sugarbeets plant response rating (0 to 10 scale) (sugar beet; [3]) | Sugarbeets plant response rating (sugar beet; [4]) | Sugarbeets plant response rating (sugar beet; [5]) | Sugarbeets plant response rating (sugar beet; [6])
9: Crabgrass plant response rating (crabgrass; [4]) | Crabgrass plant response rating (crabgrass; [5]) | Crabgrass plant response rating (crabgrass; [8]) | Giant foxtail plant response rating (0 to 10 scale) (giant foxtail; [3]) | Giant foxtail plant response rating (giant foxtail; [4])
5: Redroot pigweed plant response rating (pigweed; [8]) | Morningglory plant response rating (morningglory; [1])
4: Crabgrass plant response rating (crabgrass; [2]) | Plant response rating, Soybean (soybean; [7]) | Soybean plant response rating (soybean; [8]) | Giant foxtail plant response rating (giant foxtail; [2]) | Redroot pigweed plant response rating (pigweed; [4]) | Plant response rating, Redroot pigweed (pigweed; [7]) | Morningglory plant response rating (morningglory; [6]) | Rape plant response rating (rape; [8]) | Plant response rating, Sugarbeets (sugar beet; [7])
2: Crabgrass plant response rating (crabgrass; [1]) | Plant response rating, Velvetleaf (velvetleaf; [7]) | Soybean plant response rating (soybean; [1]) | Soybean plant response rating (soybean; [6]) | Wheat plant response rating (wheat; [5]) | Sugarbeets plant response rating (sugar beet; [1])
7: Plant response rating, Crabgrass (crabgrass; [7]) | Giant foxtail plant response rating (giant foxtail; [8]) | Plant response rating, Morningglory (morningglory; [7]) | Sugarbeets plant response rating (sugar beet; [8])
